Assays:
Format in all cases: in vivo
[1] = test system: Septoria tritici (SEPTTR); assay: Septoria blotch of wheat foliar protectant test; conditions: Zymoseptoria tritici, read-out: Activity against fungal diseases SEPTTR; for pest or weed control at 200 ppm: 200 ppm foliar, inoculated one day after treatment; for pest or weed control at 25 ppm: foliar, Tested at 25 ppm (footnote b)
Method: (§1) The plants were inoculated with the fungus one day after treatment. ***=80-100% control; **=50-79% control; *=0-49% control. It will be understood by those in the art that the efficacy of the compounds against the foregoing fungi establishes the general utility of the compounds as fungicides. The activity of the compounds as effective fungicides was determined by applying the compounds to plants and observing control of fungal disease. […] All plants were inoculated with spores of the fungus the day after treatment, then incubated in an environment conducive to disease development. Disease severity was evaluated 4 to 25 days later, depending on the speed of disease development. The following experiments were performed in the laboratory to determine the fungicidal efficacy of the compounds of the invention. […] Each pot contained 3-10 seedlings. These plants were sprayed until wet with the formulated test compound. On the following day, the leaves were inoculated with an aqueous spore suspension of Septoria tritici and the plants were kept in high humidity (one day in a dark dew chamber followed by three days in a lighted dew chamber) to permit spores to germinate and infect the leaf. The plants were then transferred to a greenhouse until disease developed on untreated control plants. Table 1 presents the activity of typical compounds of the present invention when evaluated in these experiments. The effectiveness of the test compounds at controlling disease when sprayed on leaves was determined by assessing the severity of disease on treated plants, then converting the severity to percent control based on the level of disease on untreated, inoculated plants.

[2] = test system: Puccinia recondita tritici (PUCCRT); assay: Leaf rust of wheat foliar protectant test; conditions: read-out: Activity against fungal diseases PUCCRT; for pest or weed control at 200 ppm: 200 ppm foliar, inoculated one day after treatment; for pest or weed control at 3 ppm: foliar, Tested at 3 ppm (footnote a)
Method: as §1, with “3-8” for “3-10”, “compounds.” for “compound.”, “Puccinia recondita” for “Septoria”, “overnight” for “(one day in a dark dew chamber followed by three days in a lighted dew chamber)”

[3] = test system: Magnaporthe grisea = Pyricularia oryzae (PYRIOR); assay: whole plant or invertebrate; conditions: foliar, read-out: Activity against fungal diseases PYRIOR
[4] = test system: Pseudoperonospora cubensis (PSPECU); assay: Cucumber downy mildew foliar protectant test; conditions: 200 ppm foliar, inoculated one day after treatment, read-out: Activity against fungal diseases PSPECU
Method: The plants were inoculated with the fungus one day after treatment. ***=80-100% control; **=50-79% control; *=0-49% control. It will be understood by those in the art that the efficacy of the compounds against the foregoing fungi establishes the general utility of the compounds as fungicides. The activity of the compounds as effective fungicides was determined by applying the compounds to plants and observing control of fungal disease. […] All plants were inoculated with spores of the fungus the day after treatment, then incubated in an environment conducive to disease development. Disease severity was evaluated 4 to 25 days later, depending on the speed of disease development. The following experiments were performed in the laboratory to determine the fungicidal efficacy of the compounds of the invention. Cucumber Downy Mildew (Causal Agent Pseudoperonospora cubensis; Bayer Code […]): Cucumber plants (variety “Bush Champion' or 'Bush Pickle Hybrid') were grown from seed in a soil-less peat-based potting mixture (Metromix) until the first true leaf was 20-80% expanded. Each pot contained 1 seedling. These plants were sprayed until wet with the formulated test compound. On the following day, the leaves were inoculated with an aqueous suspension of downy mildew sporangia and the plants were kept in high humidity for one day to permit sporangia to germinate and infect the leaf. The plants were then incubated in a growth chamber until disease developed on untreated control plants. Table 1 presents the activity of typical compounds of the present invention when evaluated in these experiments. The effectiveness of the test compounds at controlling disease when sprayed on leaves was determined by assessing the severity of disease on treated plants, then converting the severity to percent control based on the level of disease on untreated, inoculated plants.

| Structure (SMILES) | pest or weed control at 200 ppm [1] | pest or weed control at 200 ppm [2] | pest or weed control at 200 ppm [3] | pest or weed control at 200 ppm [4] | pest or weed control at 25 ppm [1] | pest or weed control at 3 ppm [2] |
| --- | --- | --- | --- | --- | --- | --- |
| COc1ccc(C(C)Nc2ncnc3c(F)ccc(F)c23)cc1 (stereo not shown) [Compound 120] | 0 to 49% | 80 to 100% |  |  |  |  |
| Fc1cc(F)c2ncnc(NCCc3ccc(Oc4cc(C(F)(F)F)ccn4)c(Cl)c3)c2c1F [Compound 92] | 50 to 79% | 50 to 79% | 80 to 100% |  |  |  |
| Fc1ccc(F)c2c(NCCc3ccc(Oc4cnccc4C(F)(F)F)c(Cl)c3)ncnc12 [Compound 91] | 80 to 100% | 80 to 100% | 80 to 100% | 80 to 100% |  |  |
| COc1cc(CCNc2ncnc3c(F)ccc(F)c23)ccc1Oc1nc(C(F)(F)F)nc(F)c1F [Compound 101] | 0 to 49% | 50 to 79% | 0 to 49% | 80 to 100% |  |  |
| COc1cc(C(F)(F)F)cc(Oc2ccc(CCNc3ncnc4c(F)ccc(F)c34)cc2C)n1 [Compound 29] | 80 to 100% | 80 to 100% | 50 to 79% | 80 to 100% |  |  |
| Fc1cnc(C(F)(F)F)c(F)c1Oc1ccc(CCNc2ncnc3c(F)ccc(F)c23)cc1 [Compound 48] | 80 to 100% | 80 to 100% | 80 to 100% | 80 to 100% |  |  |
| CC(Cc1ccc(Oc2ccc(C(F)(F)F)cn2)cc1)Nc1ncnc2c(F)ccc(F)c12 (stereo not shown) [Compound 136] |  |  |  |  | 80 to 100% | 80 to 100% |
| Cc1cc(CCNc2ncnc3c(F)ccc(F)c23)c(C)cc1O [Compound 18] | 0 to 49% | 50 to 79% | 0 to 49% | 0 to 49% |  |  |
| COc1ccc(CCNc2ncnc3c(F)ccc(F)c23)cc1F [Compound 46] | 0 to 49% | 80 to 100% | 0 to 49% | 80 to 100% |  |  |
| Oc1ccc2c(c1)CC(Nc1ncnc3c(F)ccc(F)c13)C2 (stereo not shown) [Compound 106] | 0 to 49% | 50 to 79% | 50 to 79% | 50 to 79% |  |  |
| COc1ccc(CCNc2ncnc3c(F)ccc(F)c23)cc1Br [Compound 32] | 0 to 49% | 80 to 100% | 50 to 79% | 80 to 100% |  |  |
| Fc1ccc(F)c2c(NCCc3ccc(Oc4cc(Cl)nc(C(F)(F)F)n4)cc3)ncnc12 [Compound 103] | 0 to 49% | 80 to 100% | 80 to 100% |  |  |  |
| CC(CNc1ncnc2c(F)ccc(F)c12)c1ccc(Oc2cc(C(F)(F)F)ccn2)cc1 (stereo not shown) [Compound 144] |  |  |  |  | 80 to 100% | 80 to 100% |
| Cc1ccnc(Oc2ccc(CCNc3ncnc4c(F)ccc(F)c34)cc2)c1 [Compound 128] |  |  |  |  | 50 to 79% | 80 to 100% |
| Cc1cc(C(F)(F)F)cc(Oc2cc(C)c(CCNc3ncnc4c(F)ccc(F)c34)cc2C)n1 [Compound 22] |  | 80 to 100% | 50 to 79% |  | 80 to 100% |  |
| COc1ccc(C(C)CNc2ncnc3c(F)ccc(F)c23)cc1 (stereo not shown) [Compound 139] |  |  |  |  | 0 to 49% | 0 to 49% |
| Oc1ccc(CCNc2ncnc3c(F)ccc(F)c23)cc1Br [Compound 38] |  | 0 to 49% | 0 to 49% | 0 to 49% |  |  |
| CC(Cc1ccc(Oc2cnccc2C(F)(F)F)cc1)Nc1ncnc2c(F)ccc(F)c12 (stereo not shown) [Compound 138] |  |  |  |  | 80 to 100% | 80 to 100% |

| Structure (SMILES) | pest or weed control at 200 ppm [1] | pest or weed control at 200 ppm [2] | pest or weed control at 200 ppm [3] | pest or weed control at 200 ppm [4] | pest or weed control at 25 ppm [1] | pest or weed control at 3 ppm [2] |
| --- | --- | --- | --- | --- | --- | --- |
| Fc1ccc(F)c2c(NCCc3ccc(Oc4ccnc(C(F)(F)F)c4)cc3)ncnc12 [Compound 71] |  |  |  |  | 80 to 100% | 80 to 100% |
| CC(Cc1ccc(Oc2cc(C(F)(F)F)ccn2)cc1)Nc1ncnc2c(F)ccc(F)c12 (stereo not shown) [Compound 134] |  |  |  |  | 80 to 100% | 80 to 100% |
| CC(CNc1ncnc2c(F)ccc(F)c12)c1ccc(Oc2cnccc2C(F)(F)F)cc1 (stereo not shown) [Compound 141] |  |  |  |  | 80 to 100% | 80 to 100% |
| Fc1ccc(F)c2c(OCCc3ccc(OCC(F)(F)F)cc3)ncnc12 [Compound 121] |  |  |  |  | 50 to 79% | 0 to 49% |
| COc1ccc2c(c1)CC(Nc1ncnc3c(F)ccc(F)c13)C2 (stereo not shown) [Compound 105] | 0 to 49% | 80 to 100% | 80 to 100% |  |  |  |
| Oc1cccc(CCNc2ncnc3c(F)ccc(F)c23)c1 [Compound 35] |  | 50 to 79% |  | 80 to 100% |  |  |
| CC(Cc1ccc(Oc2ncc(C(F)(F)F)cc2F)cc1)Nc1ncnc2c(F)ccc(F)c12 (stereo not shown) [Compound 137] |  |  |  |  | 80 to 100% | 50 to 79% |
| CC(CNc1ncnc2c(F)ccc(F)c12)c1ccc(Oc2cc(C(F)(F)F)ncn2)cc1 (stereo not shown) [Compound 142] |  |  |  |  | 80 to 100% | 80 to 100% |
| Fc1ccc(F)c2c(NCCc3ccc(Oc4cc(C(F)(F)F)ncn4)cc3)ncnc12 [Compound 109] | 80 to 100% | 80 to 100% | 80 to 100% |  |  |  |
| Fc1ccc(F)c2c(NCCc3ccc(Oc4ncccc4C(F)(F)F)cc3)ncnc12 [Compound 13] |  |  |  |  | 80 to 100% | 80 to 100% |
| CC(Cc1ccc(Oc2cc(C(F)(F)F)ncn2)cc1)Nc1ncnc2c(F)ccc(F)c12 (stereo not shown) [Compound 135] |  |  |  |  | 80 to 100% | 80 to 100% |
| Fc1ccc(F)c2c(NCCc3ccc(Oc4cncc(C(F)(F)F)c4)cc3)ncnc12 [Compound 123] |  |  |  |  | 80 to 100% | 80 to 100% |
| CC(CNc1ncnc2c(F)ccc(F)c12)c1ccc(Oc2ccc(C(F)(F)F)cn2)cc1 (stereo not shown) [Compound 143] |  |  |  |  | 80 to 100% | 0 to 49% |
| COc1cc(CCNc2ncnc3c(F)ccc(F)c23)ccc1Oc1cc(Cl)nc(C(F)(F)F)n1 [Compound 104] | 0 to 49% | 80 to 100% | 80 to 100% |  |  |  |
| COc1cc(CCNc2ncnc3c(F)cc(F)c(F)c23)ccc1O [Compound 33] |  |  |  |  | 0 to 49% | 0 to 49% |
| CC(CNc1ncnc2c(F)ccc(F)c12)c1ccc(Oc2ncc(C(F)(F)F)cc2F)cc1 (stereo not shown) [Compound 145] |  |  |  |  | 50 to 79% | 0 to 49% |
| COC(=O)c1cnc(Oc2ccc(CCNc3ncnc4c(F)ccc(F)c34)cc2C)cc1C(F)(F)F [Compound 36] |  | 80 to 100% |  | 80 to 100% | 0 to 49% |  |
| Cc1cc(CCNc2ncnc3c(F)ccc(F)c23)ccc1Oc1nc(C(F)(F)F)nc(F)c1F [Compound 102] | 0 to 49% | 80 to 100% | 80 to 100% |  |  |  |

From patent publication US9000162B2, “5,8-difluoro-4-(2-(4-(heteroaryloxy)-phenyl)ethylamino)quinazolines and their use as agrochemicals” (Dow AgroSciences LLC, priority 2008, dated 2015)
